Where a name gives a salt, the structure may show the parent alone.
B1: IMP321: recombinant soluble human LAG-3Ig fusion protein, 200-kDa dimer: extracellular domain of hLAG-3 fused to human IgG1 Fc (protein)
chain: LQPGAEVPVVWAQEGAPAQLPCSPTIPLQDLSLLRRAGVTWQHQPDSGPPAAAPGHPLAPGPHPAAPSSWGPRPRRYTVLSVGPGGLRSGRLPLQPRVQLDERGRQRGDFSLWLRPARRADAGEYRAAVHLRDRALSCRLRLRLGQASMTASPPGSLRASDWVILNCSFSRPDRPASVHWFRNRGQGRVPVRESPHHHLAESFLFLPQVSPMDSGPWGCILTYRDGFNVSIMYNLTVLGLEPPTPLTVYAGAGSRVGLPCRLPAGVGTRSFLTAKWTPPGGGPDLLVTGDNGDFTLRLEDVSQAQAGTYTCHIHLQEQQLNATVTLAIITVTPKSFGSPGSLGKLLCEVTPVSGQERFVWSSLDTPSQRSFSGPWLEAQEAQLLSQPWQCQLYQGERLLGAAVYFTELSSPG
modifications: left off: small tags and cut ends; a dimerising Fc or GST
notes: recombinant soluble human LAG-3Ig fusion protein, 200-kDa dimer: extracellular domain of hLAG-3 fused to human IgG1 Fc

Columns and labels:
[1] = system: lymphoma cell line EL4; assay: Murine syngeneic skin tumour model, EL4, carboplatin and oxaliplatin (Example 3); format: in vivo; conditions: EL4 s.c. in C57Bl/6 mice; IMP321 50 μg s.c. D7-D25; Carboplatin 16 mg/kg i.p. D6, D10, D13, D17; Oxaliplatin 3 mg/kg i.p. D6, D10; FIG. 3A/3B
Method: (§1) A murine syngeneic skin tumour model was established using the lymphoma cell line EL4.
The minimum tumorigenic dose (MTD) of tumour cells (5×10^5 cells) was implanted by s.c. injection in the right flank of C57Bl/6 mice (5 weeks old) at Day 0. The mice were injected with phosphate buffered saline (PBS) (Group 1 mice), IMP321 (Group 2 mice), IMP321 and Carboplatin (Group 3 mice), Carboplatin alone (Group 4 mice), IMP321 and Oxaliplatin (Group 5 mice), or Oxaliplatin alone (Group 6 mice) according to the following schedule: • Group 1 (10 mice): negative control: PBS s.c. injection at D7, D11, D14, D18, D21 and D25; • Group 2 (10 mice): IMP321 s.c. injection (50 μg, 1.9 mg/m) at D7, D11, D14, D18, D21 and D25; • Group 3 (9 mice): IMP321 s.c. injection (50 μg, 1.9 mg/ml) at D7, D11, D14, D18, D21 and D25, plus Carboplatin i.p. injection (288 μg, 16 mg/kg) at D6, D10, D13 and D17; • Group 4 (10 mice): Carboplatin i.p. injection (288 μg, 16 mg/kg) at D6, D10, D13 and D17; • Group 5 (10 mice): IMP321 s.c. injection (50 μg, 1.9 mg/m) at D7, D11, D14, D18, D21 and D25, plus Oxaliplatin i.p. injection (54 μg, 3 mg/kg) at D6 and D10; • Group 6 (10 mice): Oxaliplatin i.p. injection (54 μg, 3 mg/kg) at D6 and D10.
Tumour growth was monitored twice a week by measuring two perpendicular tumor diameters using calipers. […] Tumour size means the cross-sectional area in mm^2.

[2] = system: Mouse colon 38 (C38) tumor fragments; assay: C38 colon adenocarcinoma tumor model (Example 4); conditions: C38 fragments s.c. in C57BL/6 mice; oxaliplatin 5 mg/kg IV Q7Dx4; IMP321 20 μg SC Q7Dx4, day after oxaliplatin; FIG. 4A
Method: The effect of combined treatment with the LAG-3 derivative IMP321 (also referred to as hLAG-3Ig) and oxaliplatin in the C38 colon adenocarcinoma tumor model was evaluated. In this model, tumor fragments are surgically implanted subcutaneously.
Mouse colon 38 (C38) tumor fragments were obtained frozen from the Division of Cancer Treatment, Tumor Repository, NCI (Frederick, MD, USA). The C38 fragments were stored frozen in DMSO/SVF/RPMI 1640 medium (10/10/80) in liquid nitrogen until use. The fragments were thawed at 37° C. for 5 min, rinsed twice in RPMI 1640 medium before subcutaneous (SC) implantation in mice. The C38 tumors were serially transplanted in C57Bl/6 mice.
Small C38 tumor fragments (20-30 mg) were subcutaneously implanted in the right flank of 12 C57BL/6 mice. When tumor sizes reached 500-1000 mm^3, tumors were surgically excised and small C38 tumor fragments (20-30 mg) were subcutaneously implanted in the right flank of recipient C57BL/6 mice.
Treatment started when the tumors reached a mean volume of 200-300 mm^3. […]

[3] = system: lymphoma cell line EL4; assay: Murine syngeneic skin tumour model, EL4 (Example 2); format: in vivo; conditions: EL4 s.c. in C57Bl/6 mice; IMP321 50 μg s.c. D7-D24; Carboplatin 16 mg/kg i.p. D6, D10, D13, D17; FIG. 2
Method: as §1
The minimum tumorigenic dose (MTD) of tumour cells (5×10^5 cells) was implanted by s.c. injection in the right flank of C57Bl/6 mice (5 weeks old) at Day 0. The mice were injected with phosphate buffered saline (PBS) (Group 1 mice), IMP321 (Group 2 mice), IMP321 and Carboplatin (Group 3 mice), or Carboplatin alone (Group 4 mice) according to the following schedule: • Group 1 (8 mice): negative control: PBS s.c. injection at D7, D11, D14, D19, D21 and D24; • Group 2 (8 mice): IMP321 s.c. injection (50 μg, 3.96 mg/ml) at D7, D11, D14, D19, D21 and D24; • Group 3 (8 mice): IMP321 s.c. injection (50 μg, 3.96 mg/m) at D7, D11, D14, D19, D21 and D24, plus Carboplatin i.p. injection (288 μg, 16 mg/kg) at D6, D10, D13 and D17; • Group 4 (8 mice): Carboplatin i.p. injection (288 μg, 16 mg/kg) at D6, D10, D13 and D17.
Tumour growth was monitored twice a week by measuring two perpendicular tumor diameters using calipers. Tumour size means the cross-sectional area in mm^2.

[4] = system: colorectal adenocarcinoma cell line CT26; assay: Murine syngeneic skin tumour model, CT26 (Example 1); format: in vivo; conditions: CT26 s.c. in BALB/c mice; IMP321 50 μg s.c. D11-D28; Topotecan 2.5 mg/kg i.p. D10, D13, D17; FIG. 1
Method: A murine syngeneic skin tumour model was established using the colorectal adenocarcinoma cell line CT26.
One quarter of the minimum tumorigenic dose (MTD) of tumour cells (0.5×10^5 cells) was implanted by subcutaneous (s.c.) injection in the right flank of four groups of BALB/c mice (5 weeks old) at Day 0. The mice were injected with phosphate buffered saline (PBS) (Group 1 mice), the LAG-3 derivative IMP321 (Group 2 mice), IMP321 and Topotecan (Group 3 mice), or Topotecan alone (Group 4 mice) according to the following schedule: • Group 1 (8 mice): negative control: PBS s.c. injection at D11, D14, D18, D21, D25 and D28; • Group 2 (7 mice): IMP321 s.c. injection (50 μg, 1.9 mg/ml) at D11, D14, D18, D21, D25 and D28; • Group 3 (8 mice): IMP321 s.c. injection (50 μg, 1.9 mg/ml) at D11, D14, D18, D21, D25 and D28, plus Topotecan i.p. injection (45 μg, 2.5 mg/kg) at D10, D13 and D17; • Group 4 (8 mice): Topotecan i.p. injection (45 μg, 2.5 mg/kg) at D10, D13 and D17.
Tumour growth was monitored twice a week by measuring two perpendicular tumour diameters using calipers. Tumour size means the cross-sectional area in mm^2.

| Molecule | effect on tumour growth (tumour size, cross-sectional area) [1] | effect on delaying tumor growth [2] | effect on tumour growth (tumour size, cross-sectional area) [3] | effect on tumour growth (tumour size, cross-sectional area) [4] |
| --- | --- | --- | --- | --- |
| O=C1[O][Pt]2([NH][C@@H]3CCCC[C@H]3[NH]2)[O]C1=O [Oxaliplatin, [(1R,2R)-cyclohexane-1,2-diamine](ethanedioato-O,O′)platinum(II)] | had an effect | a slight effect | – | – |
| [NH2][Pt]1([NH2])[O]C(=O)C2(CCC2)C(=O)[O]1 [carboplatin, cis-diammine(cyclobutane-1,1-dicarboxylate-O,O′)platinum(I)] | some effect | – | very little effect, if any | – |
| CC[C@@]1(O)C(=O)OCc2c1cc1n(c2=O)Cc2cc3c(CN(C)C)c(O)ccc3nc2-1 [topotecan, (S)-10-[(dimethylamino)methy]-4-ethyl-4,9-dihydroxy-1H-pyrano[3′,4′:6,7]indolizino[1,2-b] quinoline-3,14(4H,12H)-dione monohydrochloride] | – | – | – | some effect on reducing tumor growth |
| B1 | little, if any effect | no effect on delaying tumor growth | no effect on tumour growth | no effect on tumour growth |

Reference: patent US12214012B2, “Combined preparations for the treatment of cancer” (IMMUTEP S.A.S., priority 2013, dated 2025)
